Data published in US20240376099A1, “COMPOUNDS AND COMPOSITIONS AS INHIBITORS OF ENDOSOMAL TOLL-LIKE RECEPTORS” (Novartis AG, priority 2016, published 2024).

Biological target: T1, TLR7 (Homo sapiens, UniProt Q9NYK1)
T1 construct: Fresh blood was collected from normal human donors; endogenous in cells; host or cells: human PBMCs from fresh donor blood
T1 sequence (Q9NYK1 27-1049): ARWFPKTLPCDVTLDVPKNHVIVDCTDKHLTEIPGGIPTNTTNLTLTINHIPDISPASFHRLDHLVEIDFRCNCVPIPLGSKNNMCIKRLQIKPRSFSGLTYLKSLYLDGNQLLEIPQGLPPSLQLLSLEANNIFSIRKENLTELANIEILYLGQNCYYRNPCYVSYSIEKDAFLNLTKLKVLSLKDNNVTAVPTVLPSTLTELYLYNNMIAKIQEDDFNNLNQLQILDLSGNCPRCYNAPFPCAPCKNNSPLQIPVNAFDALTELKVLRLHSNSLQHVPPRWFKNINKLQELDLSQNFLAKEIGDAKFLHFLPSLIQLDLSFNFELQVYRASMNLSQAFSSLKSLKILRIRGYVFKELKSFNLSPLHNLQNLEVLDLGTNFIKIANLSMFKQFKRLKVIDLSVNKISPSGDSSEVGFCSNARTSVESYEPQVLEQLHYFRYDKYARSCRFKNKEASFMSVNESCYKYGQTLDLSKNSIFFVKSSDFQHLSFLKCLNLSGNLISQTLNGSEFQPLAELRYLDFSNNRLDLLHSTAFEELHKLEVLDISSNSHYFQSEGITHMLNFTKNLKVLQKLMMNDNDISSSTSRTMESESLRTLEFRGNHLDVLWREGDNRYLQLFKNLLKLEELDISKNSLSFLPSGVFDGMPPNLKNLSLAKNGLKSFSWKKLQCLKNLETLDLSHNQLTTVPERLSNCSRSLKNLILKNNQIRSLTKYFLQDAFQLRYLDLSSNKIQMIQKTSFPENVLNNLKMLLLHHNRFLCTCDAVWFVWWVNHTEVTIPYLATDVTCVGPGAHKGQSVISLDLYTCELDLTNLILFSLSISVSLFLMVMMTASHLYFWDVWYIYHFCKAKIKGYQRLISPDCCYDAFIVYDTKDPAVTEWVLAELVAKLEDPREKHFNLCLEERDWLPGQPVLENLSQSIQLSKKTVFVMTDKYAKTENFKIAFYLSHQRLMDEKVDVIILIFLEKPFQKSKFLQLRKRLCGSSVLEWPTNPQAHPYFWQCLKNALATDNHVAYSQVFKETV
Experiment: huPBMC TLR7 Antagonist IFNα Assay
Format: cell-based
Details: human PBMCs stimulated with ssRNA40 10 μg/mL (DOTAP), 14-16 hrs; IFNα2b AlphaLISA read-out
How it was run: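 Human PBMCs from fresh donor blood (150,000 cells/well) stimulated 14–16 h at 37 °C with DOTAP-complexed ssRNA40 (final 1 μg/ml for TLR8, 10 μg/mL for TLR7) or ODN2216 (final 0.3 μM, TLR9), 0.25% DMSO, ten-point 1/3 compound dilutions. Supernatant IL-6 read by HTRF (TLR8); IFNα by IFNα2b AlphaLISA (TLR7/TLR9).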

Structure (SMILES)	IC50 [nM]
Cc1cc(N2CCc3c(c(C)nn3CC34CCC(N)(CC3)CC4)C2)c2cnn(C)c2n1 [Compound No. 1, 4-((5-(1,6-dimethyl-1H-pyrazolo[3,4-b]pyridin-4-yl)-3-methyl-4,5,6,7-tetrahydro-1H-pyrazolo[4,3-c]pyridin-1-yl)methyl)bicyclo[2.2.2]octan-1-amine]	25
Cc1cc(N2CCc3c(c(C)nn3CC34CCC(N)(CC3)CC4)C2)c2cn[nH]c2n1 [Compound No. 2, 4-((3-methyl-5-(6-methyl-1H-pyrazolo[3,4-b]pyridin-4-yl)-4,5,6,7-tetrahydro-1H-pyrazolo[4,3-c]pyridin-1-yl)methyl)bicyclo[2.2.2]octan-1-amine]	38
Cc1cc(N2CCc3c(c(C)nn3CC34CCC(N(C)C(=O)OC(C)(C)C)(CC3)CC4)C2)c2cnn(C)c2n1 [Compound No. 49, tert-butyl (4-((5-(1,6-dimethyl-1H-pyrazolo[3,4-b]pyridin-4-yl)-3-methyl-4,5,6,7-tetrahydro-1H-pyrazolo[4,3-c]pyridin-1-yl)methyl)bicyclo[2.2.2]octan-1-yl)(methyl)carbamate]	20
Cc1cc(N2CCc3c(c(C)nn3CC34CCC(NC(=O)OC5(C)CC5)(CC3)CC4)C2)c2cnn(C)c2n1 [Compound No. 51, 1-methylcyclopropyl (4-((5-(1,6-dimethyl-1H-pyrazolo[3,4-b]pyridin-4-yl)-3-methyl-4,5,6,7-tetrahydro-1H-pyrazolo[4,3-c]pyridin-1-yl)methyl)bicyclo[2.2.2]octan-1-yl)carbamate]	7
COc1ccc(Cn2ncc3c(N4CCc5c(c(C)nn5CC56CCC(N)(CC5)CC6)C4)cc(C)nc32)cc1 [Compound No. 53, 4-((5-(1-(4-methoxybenzyl)-6-methyl-1H-pyrazolo[3,4-b]pyridin-4-yl)-3-methyl-4,5,6,7-tetrahydro-1H-pyrazolo[4,3-c]pyridin-1-yl)methyl)bicyclo[2.2.2]octan-1-amine]	843
Cc1cc(N2CCc3c(c(C)nn3CC34CCC(N5CCCC5)(CC3)CC4)C2)c2cnn(C)c2n1 [Compound No. 58, 5-(1,6-dimethyl-1H-pyrazolo[3,4-b]pyridin-4-yl)-3-methyl-1-((4-(pyrrolidin-1-yl)bicyclo[2.2.2]octan-1-yl)methyl)-4,5,6,7-tetrahydro-1H-pyrazolo[4,3-c]pyridine]	3
Cc1cc(N2CCc3c(c(C)nn3CC34CCC(N5CCOCC5)(CC3)CC4)C2)c2cnn(C)c2n1 [Compound No. 59, 4-(4-((5-(1,6-dimethyl-1H-pyrazolo[3,4-b]pyridin-4-yl)-3-methyl-4,5,6,7-tetrahydro-1H-pyrazolo[4,3-c]pyridin-1-yl)methyl)bicyclo[2.2.2]octan-1-yl)morpholine]	4
Cc1cc(N2CCc3c(c(C)nn3CC34CCC(N(C)C5COC5)(CC3)CC4)C2)c2cnn(C)c2n1 [Compound No. 77, N-(4-((5-(1,6-dimethyl-1H-pyrazolo[3,4-b]pyridin-4-yl)-3-methyl-4,5,6,7-tetrahydro-1H-pyrazolo[4,3-c]pyridin-1-yl)methyl)bicyclo[2.2.2]octan-1-yl)-N-methyloxetan-3-amine]	10
Cc1nn(CC23CCC(N)(CC2)CC3)c2c1CN(c1ccnc(-c3ccc(C#N)cc3)c1)CC2 [Compound No. 84, 4-(4-(1-((4-aminobicyclo[2.2.2]octan-1-yl)methyl)-3-methyl-6,7-dihydro-1H-pyrazolo[4,3-c]pyridin-5(4H)-yl)pyridin-2-yl)benzonitrile]	302
Cc1cc(N2CCc3nn(CC45CC(N)(C4)C5)c(C)c3C2)c2cnn(C)c2n1 [compound 52, 3-((5-(1,6-dimethyl-1H-pyrazolo[3,4-b]pyridin-4-yl)-3-methyl-4,5,6,7-tetrahydro-2H-pyrazolo[4,3-c]pyridin-2-yl)methyl)bicyclo[1.1.1]pentan-1-amine]	304
Cc1cc(N2CCc3c(c(C)nn3CC34CCC(NC5CCC5)(CC3)CC4)C2)c2cnn(C)c2n1 [compound 54, N-cyclobutyl-4-((5-(1,6-dimethyl-1H-pyrazolo[3,4-b]pyridin-4-yl)-3-methyl-4,5,6,7-tetrahydro-1H-pyrazolo[4,3-c]pyridin-1-yl)methyl)bicyclo[2.2.2]octan-1-amine]	4
Cc1cc(N2CCc3c(c(C)nn3CC34CCC(N5CCC5)(CC3)CC4)C2)c2cnn(C)c2n1 [compound 64, 1-((4-(azetidin-1-yl)bicyclo[2.2.2]octan-1-yl)methyl)-5-(1,6-dimethyl-1H-pyrazolo[3,4-b]pyridin-4-yl)-3-methyl-4,5,6,7-tetrahydro-1H-pyrazolo[4,3-c]pyridine]	4
CCOCCN(CCOCC)C12CCC(Cn3nc(C)c4c3CCN(c3cc(C)nc5c3cnn5C)C4)(CC1)CC2 [compound 72, 4-((5-(1,6-dimethyl-1H-pyrazolo[3,4-b]pyridin-4-yl)-3-methyl-4,5,6,7-tetrahydro-1H-pyrazolo[4,3-c]pyridin-1-yl)methyl)-N,N-bis(2-ethoxyethyl)bicyclo[2.2.2]octan-1-amine]	37
Cc1cc(N2CCc3c(c(C)nn3CC34CCC(N5C[C@@H](O)[C@@H](O)C5)(CC3)CC4)C2)c2cnn(C)c2n1 [compound 74, (3S,4R)-1-(4-((5-(1,6-dimethyl-1H-pyrazolo[3,4-b]pyridin-4-yl)-3-methyl-4,5,6,7-tetrahydro-1H-pyrazolo[4,3-c]pyridin-1-yl)methyl)bicyclo[2.2.2]octan-1-yl)pyrrolidine-3,4-diol]	7

Now from value to compound:

IC50 [nM]	Structure (SMILES)
6	CNC12CCC(Cn3nc(C)c4c3CCN(c3cc(C)nc5c3cnn5C)C4)(CC1)CC2 [Compound No. 50, 4-((5-(1,6-dimethyl-1H-pyrazolo[3,4-b]pyridin-4-yl)-3-methyl-4,5,6,7-tetrahydro-1H-pyrazolo[4,3-c]pyridin-1-yl)methyl)-N-methylbicyclo[2.2.2]octan-1-amine]
9	COCCNC12CCC(Cn3nc(C)c4c3CCN(c3cc(C)nc5c3cnn5C)C4)(CC1)CC2 [Compound No. 69, 4-((5-(1,6-dimethyl-1H-pyrazolo[3,4-b]pyridin-4-yl)-3-methyl-4,5,6,7-tetrahydro-1H-pyrazolo[4,3-c]pyridin-1-yl)methyl)-N-(2-methoxyethyl)bicyclo[2.2.2]octan-1-amine]
56	Cc1cc(N2CCc3c(c(C)nn3CC34CCC(O)(CC3)CC4)C2)c2cnn(C)c2n1 [compound 46, 4-((5-(1,6-dimethyl-1H-pyrazolo[3,4-b]pyridin-4-yl)-3-methyl-4,5,6,7-tetrahydro-1H-pyrazolo[4,3-c]pyridin-1-yl)methyl)bicyclo[2.2.2]octan-1-ol]
5	Cc1cc(N2CCc3c(c(C)nn3CC34CCC(NC(C)C)(CC3)CC4)C2)c2cnn(C)c2n1 [compound 55, 4-((5-(1,6-dimethyl-1H-pyrazolo[3,4-b]pyridin-4-yl)-3-methyl-4,5,6,7-tetrahydro-1H-pyrazolo[4,3-c]pyridin-1-yl)methyl)-N-isopropylbicyclo[2.2.]octan-1-amine]
7	Cc1cc(N2CCc3c(c(C)nn3CC34CCC(NC(C)CO)(CC3)CC4)C2)c2cnn(C)c2n1 (stereo not drawn) [compound 56, 2-((4-((5-(1,6-dimethyl-1H-pyrazolo[3,4-b]pyridin-4-yl)-3-methyl-4,5,6,7-tetrahydro-1H-pyrazolo[4,3-c]pyridin-1-yl)methyl)bicyclo[2.2.2]octan-1-yl)amino)propan-1-ol]
7	CCNC12CCC(Cn3nc(C)c4c3CCN(c3cc(C)nc5c3cnn5C)C4)(CC1)CC2 [compound 57, 4-((5-(1,6-dimethyl-1H-pyrazolo[3,4-b]pyridin-4-yl)-3-methyl-4,5,6,7-tetrahydro-1H-pyrazolo[4,3-c]pyridin-1-yl)methyl)-N-ethylbicyclo[2.2.]octan-1-amine]
5	CCOCCNC12CCC(Cn3nc(C)c4c3CCN(c3cc(C)nc5c3cnn5C)C4)(CC1)CC2 [compound 71, 4-((5-(1,6-dimethyl-1H-pyrazolo[3,4-b]pyridin-4-yl)-3-methyl-4,5,6,7-tetrahydro-1H-pyrazolo[4,3-c]pyridin-1-yl)methyl)-N-(2-ethoxyethyl)bicyclo[2.2.2]octan-1-amine]
